The subject of assay [1] is HCT 116 cells. Nature of the assay: CellTiter-Glo assay in HCT 116 cells. As to conditions: Homo sapiens, HCT-116, 120 h, 5 days incubation, 30 μM to 0.0015 μM. The format is cell-based, human. From the text:
CellTiter-Glo™ Assay in HCT 116 Cells
The CellTiter-Glo™ Luminescent Cell Viability Assay (Promega) is a homogeneous method of determining the number of viable cells in culture based on quantitation of the ATP present, which signals the presence of metabolically active cells.
HCT 116 cells (human colon carcinoma, ATCC-No. CCl-247) were cultivated in RPMI 1640 medium with GlutaMAX™ I (Invitrogen, Cat-No. 61870-010), 2.5% Fetal Calf Serum (FCS, Sigma Cat-No. F4135 (FBS)); 100 Units/ml penicillin/100 μg/ml streptomycin (=Pen/Strep from Invitrogen Cat. No. 15140). For the assay the cells were seeded in 384 well plates, 1000 cells per well, in the same medium. The next day the test compounds were added in various concentrations ranging from 30 μM to 0.0015 μM (10 concentrations, 1:3 diluted). After 5 days the CellTiter-Glo™ assay was done according to the instructions of the manufacturer (CellTiter-Glo™ Luminescent Cell Viability Assay, from Promega). In brief: the cell-plate was equilibrated to room temperature for approximately 30 minutes and than the CellTiter-Glo™ reagent was added. The contents were carefully mixed for 15 minutes to induce cell lysis. After 45 minutes the luminescent signal was measured in Victor 2, (scanning multiwell spectrophotometer, Wallac).
1st. Day: • Medium: RPMI 1640 with GlutaMAX™ I (Invitrogen, Cat-Nr. 61870), 5% FCS (Sigma Cat.-No. F4135), Pen/Strep (Invitrogen, Cat No. 15140). • HCT116 (ATCC-No. CCl-247): 1000 cells in 60 μl per well of 384 well plate (Greiner 781098, μClear-plate white) • After seeding incubate plates 24 h at 37° C., 5% CO2
2nd. Day: Induction (Treatment with Compounds, 10 Concentrations):
In order to achieve a final concentration of 30 μM as highest concentration 3.5 μl of 10 mM compound stock solution were added directly to 163 μl media. Then step e) of the dilution procedure described below, was followed.
(ATP-based viability assays read luminescence as a measure of living cells.)

Assay [2] deals with T1, Aurora A (Homo sapiens, UniProt O14965).
T1 construct: C-terminally Histidine4 (His4)-tagged Aurora A full-length protein
T1 sequence (O14965 1-403): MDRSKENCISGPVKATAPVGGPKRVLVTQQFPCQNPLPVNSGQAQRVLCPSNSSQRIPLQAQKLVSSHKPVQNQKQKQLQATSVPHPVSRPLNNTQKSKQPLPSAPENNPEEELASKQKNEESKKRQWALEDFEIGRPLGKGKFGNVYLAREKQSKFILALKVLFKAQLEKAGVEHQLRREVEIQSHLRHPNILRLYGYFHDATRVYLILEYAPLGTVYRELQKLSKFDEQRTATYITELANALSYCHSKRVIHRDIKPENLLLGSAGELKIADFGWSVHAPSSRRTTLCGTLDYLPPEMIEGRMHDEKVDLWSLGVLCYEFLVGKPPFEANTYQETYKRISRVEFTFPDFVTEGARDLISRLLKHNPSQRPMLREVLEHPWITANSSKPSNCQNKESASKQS
Nature of the assay: IC50 determination for inhibitors of Aurora A (96 MTP-ELISA). Type of assay: biochemical. As to conditions: His4-tagged full-length Aurora A 250 ng/ml, PKB-GSK2 200 nM, ATP 4 μM, 90 min at room temperature, read-out: IC50 Aurora A kinase inhibition. Here is the method: IC50 Determination for Inhibitors of Aurora A
• Aurora A is a serine threonine kinase involved in spindle assembly and chromosome segregation.
The assay is a typically ELISA-type assay where biotinylated substrate (PKB-GSK2) is phosphorylated. Phosphorylation is detected by peroxidase (POD) labelled polyclonal antibody (PAK<M-Ig>S-IgG-POD) and phosphopeptide monoclonal antibody (Mab) (MAK<P-GSK>M-27E5-IgG). The assay is validated for IC50-determination.
Method • This assay is performed in 96-well format for IC50 determination with 5 samples (each with 8 concentrations by twofold testing), 100 μl incubation volume and the following plate layout: […]
(In general: An ELISA detects its analyte on a solid surface through an enzyme-linked reagent.)

The structures appear in SMILES notation.

For `Cc1cc(Nc2nn(C(C)C)c(=O)c3c(N4CCOCC4)cccc23)n[nH]1` [Example F-3, 2-Isopropyl-4-(5-methyl-1H-pyrazol-3-ylamino)-8-morpholino-2H-phthalazin-1-one], the IC50 (usually the point on the concentration scale where inhibition reaches its midpoint) in assay [1] was in the range of 0.1 to 10 µM; in assay [2] it was 0.001 to 0.1 µM.

`Cc1cc(Nc2nn(CC(=O)c3ccc(OC(F)(F)F)cc3)c(=O)c3ccccc23)n[nH]1` [Example E-6, 4-(5-Methyl-1H-pyrazol-3-ylamino)-2-[2-oxo-2-(4-trifluoromethoxy-phenyl)-ethyl]-2H-phthalazin-1-one]: the IC50 in assay [1] is 10 to 100 µM; in assay [2], 0.1 to 1 µM.

Regarding `COc1cccc(C(=O)Cn2nc(Nc3cc(C)[nH]n3)c3ccccc3c2=O)c1` [Example E-5, 2-[2-(3-Methoxy-phenyl)-2-oxo-ethyl]-4-(5-methyl-1H-pyrazol-3-ylamino)-2H-phthalazin-1-one], the IC50 lay within 0.1 to 10 µM in assay [1] and 0.001 to 0.1 µM in assay [2].

Consider `Cc1cc(Nc2nn(C(C)C)c(=O)c3cc(N(C)Cc4cccnc4)ccc23)n[nH]1` [Example I-3, 2-Isopropyl-4-(5-methyl-1H-pyrazol-3-ylamino)-7-(methyl-pyridin-3-ylmethyl-amino)-2H-phthalazin-1-one], for which the IC50 in assay [1] lay within 0.1 to 10 µM; in assay [2], 0.001 to 0.1 µM.

As to `Cc1cc(Nc2nn(-c3ccc(C(C)(C)C)cc3)c(=O)c3cc([N+](=O)[O-])ccc23)[nH]n1` [Example ZB-3, 2-(4-tert-Butyl-phenyl)-4-(5-methyl-2H-pyrazol-3-ylamino)-7-nitro-2H-phthalazin-1-one], the IC50 lay within 0.1 to 10 µM in assay [1] and 0.001 to 0.1 µM in assay [2].

Consider `Cc1cc(Nc2nn(Cc3ccc(N)cc3)c(=O)c3ccccc23)n[nH]1` [Example C-1, 2-(4-Aminobenzyl)-4-(5-methyl-1H-pyrazol-3-ylamino)-2H-phthalazin-1-one], for which the 50% inhibitory concentration (IC50) in assay [1] lay in the range of 0.1 to 10 µM; in assay [2], 0.001 to 0.1 µM.

With `COCCn1nc(Nc2cc(C)n[nH]2)c2ccccc2c1=O` [Example O-1, 2-(2-Methoxyethyl)-4-(5-methyl-2H-pyrazol-3-ylamino)-2H-phthalazin-1-one], the IC50 in assay [1] was in the range of 10 to 100 µM; in assay [2], 0.1 to 1 µM.

Regarding `Cc1cc(Nc2nn(-c3ccc(S(=O)(=O)C(C)(C)C)cc3)c(=O)c3ccccc23)n[nH]1` [Example ZA-1, 2-[4-(2-Methyl-propane-2-sulfonyl)-phenyl]-4-(5-methyl-1H-pyrazol-3-ylamino)-2H-phthalazin-1-one], the figures for the IC50 in assay [1] and in assay [2] were 0.1 to 10 µM and 0.001 to 0.1 µM, respectively.

Take `CSc1ccc2c(Nc3cc(C)[nH]n3)nn(C(C)C)c(=O)c2c1` [Example H-1, 2-Isopropyl-4-(5-methyl-1H-pyrazol-3-ylamino)-7-methylsulfanyl-2H-phthalazin-1-one]: the IC50 lay in the range of 0.1 to 10 µM in assay [1] and 0.001 to 0.1 µM in assay [2].

For `Cc1cc(Nc2nn(Cc3ccccc3)c(=O)c3ccccc23)n[nH]1` [Example A-2, 2-Benzyl-4-(5-methyl-1H-pyrazol-3-ylamino)-2H-phthalazin-1-one], the figures for the IC50 in assay [1] and in assay [2] were 0.1 to 10 µM and 0.065 µM, respectively.

`Cc1cc(Nc2nn(Cc3ccc(F)cc3)c(=O)c3ccccc23)n[nH]1` [Example A-20, 2-(4-Fluoro-benzyl)-4-(5-methyl-1H-pyrazol-3-ylamino)-2H-phthalazin-1-one]: the IC50 in assay [1] is 0.1 to 10 µM; in assay [2], 0.001 to 0.1 µM.

As for `CNC(=O)c1ccc(-n2nc(Nc3cc(C)[nH]n3)c3ccccc3c2=O)cc1` [Example S-1, N-Methyl-4-[4-(5-methyl-1H-pyrazol-3-ylamino)-1-oxo-1H-phthalazin-2-yl]-benzamide], the figures for the IC50 in assay [1] and in assay [2] were 0.1 to 10 µM and 0.1 to 1 µM, respectively.

As for `Cc1cc(Nc2nn(C(C)C)c(=O)c3cc(N(C)Cc4ccccn4)ccc23)n[nH]1` [Example I-4, 2-Isopropyl-4-(5-methyl-1H-pyrazol-3-ylamino)-7-(methyl-pyridin-2-ylmethyl-amino)-2H-phthalazin-1-one], the concentration for half-maximal inhibition (IC50) in assay [1] fell in the range of 0.1 to 10 µM; in assay [2] it was 0.001 to 0.1 µM.

Regarding `Cc1cc(Nc2nn(CC(=O)c3ccccc3)c(=O)c3ccccc23)n[nH]1` [Example E-9, 4-(5-Methyl-1H-pyrazol-3-ylamino)-2-(2-oxo-2-phenyl-ethyl)-2H-phthalazin-1-one], the results for the IC50 in assay [1] and in assay [2] were 0.1 to 10 µM and 0.001 to 0.1 µM, respectively.

For `CC(=O)Nc1ccc(Cn2nc(Nc3cc(C)[nH]n3)c3ccccc3c2=O)cc1` [Example D-1, N-{4-[4-(5-Methyl-1H-pyrazol-3-ylamino)-1-oxo-1H-phthalazin-2-ylmethyl]-phenyl}-acetamide], the figures for the IC50 in assay [1] and in assay [2] were 4.19 µM and 0.001 to 0.1 µM, respectively.

With `Cc1cc(Nc2nn(Cc3ccc([N+](=O)[O-])cc3)c(=O)c3ccccc23)n[nH]1` [Example B-3, 4-(5-Methyl-1H-pyrazol-3-ylamino)-2-(4-nitro-benzyl)-2H-phthalazin-1-one], the 50% inhibitory concentration (IC50) is 0.1 to 10 µM in assay [1] and 0.1 to 1 µM in assay [2].

Take `Cc1cc(Nc2nn(-c3ccc(Nc4ccccc4)cc3)c(=O)c3ccccc23)n[nH]1` [Example U-1, 4-(5-Methyl-1H-pyrazol-3-ylamino)-2-(4-phenylamino-phenyl)-2H-phthalazin-1-one]: the IC50 in assay [1] fell in the range of 0.1 to 10 µM; in assay [2] it was 0.001 to 0.1 µM.

As to `Cc1cc(Nc2nn(-c3ccccc3Cl)c(=O)c3ccccc23)n[nH]1` [Example R-4, 2-(2-Chloro-phenyl)-4-(5-methyl-1H-pyrazol-3-ylamino)-2H-phthalazin-1-one], the results for the IC50 in assay [1] and in assay [2] were 0.1 to 10 µM and 0.001 to 0.1 µM, respectively.

As to `Cc1cc(Nc2nn(C(C)C)c(=O)c3cc(OC(F)F)ccc23)n[nH]1` [Example G-7, 7-Difluoromethoxy-2-isopropyl-4-(5-methyl-1H-pyrazol-3-ylamino)-2H-phthalazin-1-one], the IC50 lay in the range of 0.1 to 10 µM in assay [1] and 0.001 to 0.1 µM in assay [2].

In the case of `COCc1ccc2c(Nc3cc(C)[nH]n3)nn(C(C)C)c(=O)c2c1` [Example K-1, 2-Isopropyl-7-methoxymethyl-4-(5-methyl-1H-pyrazol-3-ylamino)-2H-phthalazin-1-one], the half-inhibitory concentration (IC50) was in the range of 0.1 to 10 µM in assay [1] and 0.001 to 0.1 µM in assay [2].

For `Cc1cc(Nc2nn(-c3ccncc3)c(=O)c3ccccc23)n[nH]1` [Example X-1, 4-(5-Methyl-1H-pyrazol-3-ylamino)-2-pyridin-4-yl-2H-phthalazin-1-one], the IC50 in assay [1] is 0.1 to 10 µM; in assay [2], 0.1 to 1 µM.

With `Cc1cccc(-n2nc(Nc3cc(C)[nH]n3)c3ccccc3c2=O)c1` [Example B-2, 4-(5-Methyl-1H-pyrazol-3-ylamino)-2-m-tolyl-2H-phthalazin-1-one], the IC50 in assay [1] is 0.78 µM; in assay [2] it was 0.001 to 0.1 µM.

As to `Cc1cc(Nc2nn(C(C)C)c(=O)c3cc(C(N)=O)ccc23)n[nH]1` [Example N-1, 3-Isopropyl-1-(5-methyl-1H-pyrazol-3-ylamino)-4-oxo-3,4-dihydro-phthalazine-6-carboxylic acid amide], the IC50 in assay [1] fell in the range of 0.1 to 10 µM; in assay [2] it was 0.001 to 0.1 µM.

`Cc1cc(Nc2nn(C(C)C)c(=O)c3cc(N4CCN(C)CC4)ccc23)[nH]n1` [Example F-5, 2-Isopropyl-7-(4-methyl-piperazin-1-yl)-4-(5-methyl-2H-pyrazol-3-ylamino)-2H-phthalazin-1-one]: the IC50 fell in the range of 0.1 to 10 µM in assay [1] and 0.001 to 0.1 µM in assay [2].

As for `Cc1cc(Nc2nn(-c3ccccc3)c(=O)c3ccc(N)cc23)n[nH]1` [Example Z-1, 6-Amino-4-(5-methyl-1H-pyrazol-3-ylamino)-2-phenyl-2H-phthalazin-1-one], the IC50 in assay [1] was 0.1 to 10 µM; in assay [2], 0.1 to 1 µM.

The record behind these values is patent publication US7226923B2, “Phthalazinone derivatives” (Hoffman-La Roche Inc., priority 2004, dated 2007).
